The results in this text go back to PubChem BioAssay (NCI).

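Growth conditions: 96-well plates. Treatment: test compound, 48 hours, 5 concentrations. Analysis: linear interpolation between bracketing concentrations; unreached endpoints set to highest concentration. At the GI50, growth is halved. TGI denotes the concentration required for complete inhibition of growth.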 A value given as a limit tells only on which side of the number the result lay.

Among the test systems are HCC-2998 colon; PC-3 prostate; HCT-116 colon; SNB-75 CNS; A549 NSCLC; SK-MEL-2 melanoma; CAKI-1 renal; HS 578T breast; OVCAR-3 ovarian; SK-OV-3 ovarian.
What all share (assay): inhibition of tumour cell growth, NCI panel, 48 h

On to `CN1CCN(c2ccc(C(=O)Nc3cc(-c4cccc(NS(=O)(=O)c5ccccc5)c4)[nH]n3)cc2)CC1`, for which the GI50 in the assay with HCC-2998 colon was 11.2 µM; in the assay with PC-3 prostate, 10.2 µM; in the assay on HCT-116 colon, 4.68 µM; in the assay with SNB-75 CNS it was 1.61 µM; in the assay on A549 NSCLC, 7.85 µM; in the assay on SK-MEL-2 melanoma, 6.85 µM. Also, the GI50 is 17.4 µM with CAKI-1 renal, 1.7 µM with HS 578T breast, 12.7 µM with OVCAR-3 ovarian and 11.7 µM in the assay with SK-OV-3 ovarian. For the same compound, the TGI stood at 24.3 µM with HCC-2998 colon; 33.2 µM with PC-3 prostate; 17.4 µM in the assay with HCT-116 colon; 11.1 µM with SNB-75 CNS; 25.4 µM in the assay on A549 NSCLC; 20.2 µM with SK-MEL-2 melanoma. Further, the TGI came to 51.8 µM with CAKI-1 renal, 10.4 µM with HS 578T breast, 25.8 µM in the assay on OVCAR-3 ovarian and 30.9 µM in the assay on SK-OV-3 ovarian.

Take `CC1(C)CC(Nc2ccc(Nc3ccccc3)cc2)CC(C)(C)N1`: the TGI in the assay on HCC-2998 colon was 32.7 µM; with PC-3 prostate, 32.3 µM; in the assay on HCT-116 colon, 62.3 µM; in the assay on SNB-75 CNS, greater than 100 µM; in the assay with A549 NSCLC it was greater than 86.2 µM; in the assay with SK-MEL-2 melanoma, 52.9 µM. The TGI is 53.1 µM in the assay with CAKI-1 renal, 48.8 µM in the assay on HS 578T breast, 41.8 µM in the assay on OVCAR-3 ovarian and greater than 100 µM with SK-OV-3 ovarian.

As to `O=C1CCS/C(=N\S(=O)(=O)c2ccc(N3N=C4c5ccccc5CC4C3c3cccs3)cc2)N1C(=O)c1ccccc1` (stereo unspecified), the GI50 was 18.2 µM in the assay with HCC-2998 colon; 29.2 µM in the assay on PC-3 prostate; 10 µM with HCT-116 colon; greater than 100 µM in the assay on SNB-75 CNS; 10.6 µM in the assay on A549 NSCLC; 29.4 µM in the assay with SK-MEL-2 melanoma. Besides, the GI50 with CAKI-1 renal is 26.8 µM; with HS 578T breast it was 2.85 µM; in the assay on OVCAR-3 ovarian, 27.4 µM; with SK-OV-3 ovarian, 52.8 µM. Besides, the TGI in the assay with HCC-2998 colon is 32.1 µM; in the assay with PC-3 prostate, greater than 100 µM; with HCT-116 colon it was 21.6 µM; in the assay on SNB-75 CNS, greater than 100 µM; in the assay on A549 NSCLC it was 24.3 µM; in the assay on SK-MEL-2 melanoma, greater than 100 µM. Moreover, the TGI in the assay with CAKI-1 renal was 86.6 µM; in the assay on HS 578T breast it was 34.2 µM; with OVCAR-3 ovarian, 67.1 µM; in the assay with SK-OV-3 ovarian it was greater than 100 µM.

As to `CN(C)CCCn1c2nc(=O)[nH]c(=O)c-2nc2cc(Cl)c(Cl)cc21`, the GI50 with HCC-2998 colon was 12.5 µM; in the assay on PC-3 prostate, 2.67 µM; with HCT-116 colon it was 0.418 µM; in the assay on SNB-75 CNS, 18 µM; in the assay on A549 NSCLC, 4.02 µM; in the assay with SK-MEL-2 melanoma, 4.81 µM. Also, the GI50 is 1.83 µM in the assay on CAKI-1 renal, 30.9 µM in the assay on HS 578T breast, 0.812 µM with OVCAR-3 ovarian and 22.3 µM with SK-OV-3 ovarian. Further, the TGI with HCC-2998 colon worked out at 27.9 µM; in the assay on PC-3 prostate, 8.8 µM; in the assay on HCT-116 colon, 6.71 µM; in the assay on SNB-75 CNS it was 32.5 µM; with A549 NSCLC it was 16.3 µM; in the assay on SK-MEL-2 melanoma, 16.1 µM. In addition, the TGI is 4.66 µM with CAKI-1 renal, greater than 100 µM in the assay on HS 578T breast, 6.13 µM in the assay on OVCAR-3 ovarian and 65.6 µM in the assay with SK-OV-3 ovarian.

Take `Cc1[nH]nc2c1N=C(c1ccccc1Cl)c1cc([N+](=O)[O-])ccc1N2`: the GI50 with HCC-2998 colon is 14.6 µM; with PC-3 prostate, 0.233 µM; in the assay on HCT-116 colon, 0.337 µM; with SNB-75 CNS, 0.0215 µM; in the assay with SK-MEL-2 melanoma, 0.126 µM; with CAKI-1 renal, 2.12 µM. The GI50 was 0.223 µM with HS 578T breast, 0.145 µM with OVCAR-3 ovarian and 1.62 µM in the assay on SK-OV-3 ovarian. The TGI is greater than 25 µM with HCC-2998 colon; greater than 25 µM in the assay on PC-3 prostate; greater than 25 µM in the assay on HCT-116 colon; greater than 25 µM with SK-MEL-2 melanoma; greater than 22.2 µM with CAKI-1 renal; greater than 25 µM in the assay on HS 578T breast. Also, the TGI in the assay with OVCAR-3 ovarian was 0.836 µM; in the assay with SK-OV-3 ovarian, greater than 25 µM.

Take `O=C(Nc1cccc(-n2cc(-c3ccncc3)c(-c3ccc(O)c(Cl)c3)n2)c1)Nc1cccc(C(F)(F)F)c1`: the GI50 in the assay with HCC-2998 colon was 4.3 µM; in the assay with PC-3 prostate it was 2.47 µM; in the assay on HCT-116 colon it was 2.05 µM; with SNB-75 CNS, 1.43 µM; in the assay on A549 NSCLC it was 1.93 µM; in the assay with SK-MEL-2 melanoma it was 2.35 µM. Also, the GI50 was 1.87 µM in the assay with CAKI-1 renal, 1.51 µM in the assay on HS 578T breast and 3.59 µM in the assay on SK-OV-3 ovarian. Further, the TGI was 37.5 µM in the assay with HCC-2998 colon; 8.96 µM in the assay on PC-3 prostate; 5.87 µM in the assay with HCT-116 colon; 9.75 µM with SNB-75 CNS; 8.09 µM with A549 NSCLC; 4.75 µM in the assay with SK-MEL-2 melanoma. In addition, the TGI in the assay with CAKI-1 renal was 5.84 µM; in the assay with HS 578T breast, 7.08 µM; in the assay with SK-OV-3 ovarian, 23.1 µM.

In the case of `CC(=O)OC1Oc2ccccc2-c2oc(=O)c(-c3cc4ccccc4oc3=O)cc21` (stereo unspecified), the GI50 in the assay with HCC-2998 colon is 57.7 µM; with PC-3 prostate it was 29.1 µM; with SNB-75 CNS it was 17.3 µM; in the assay on A549 NSCLC it was 15.4 µM; in the assay on SK-MEL-2 melanoma, 35 µM; with CAKI-1 renal, 26.9 µM. Also, the GI50 was 30 µM in the assay with HS 578T breast, 19.1 µM in the assay with OVCAR-3 ovarian and 13.7 µM in the assay on SK-OV-3 ovarian. The TGI is greater than 100 µM in the assay on HCC-2998 colon; greater than 100 µM in the assay with PC-3 prostate; 34.5 µM with SNB-75 CNS; 33 µM with A549 NSCLC; greater than 100 µM in the assay on SK-MEL-2 melanoma; 66.1 µM in the assay with CAKI-1 renal. Also, the TGI was found to be 89.2 µM in the assay with HS 578T breast, 46.6 µM with OVCAR-3 ovarian and 30 µM in the assay with SK-OV-3 ovarian.

On to `CCNCCCn1c2c(c3ccc([N+](=O)[O-])cc3c1=O)C(=O)c1cc(OC)cnc1-2`, for which the GI50 is 0.151 µM with HCC-2998 colon; 0.249 µM in the assay on PC-3 prostate; 0.126 µM with SNB-75 CNS; 0.0776 µM with A549 NSCLC; 0.349 µM with SK-MEL-2 melanoma; 0.0406 µM in the assay with CAKI-1 renal. Moreover, the GI50 with HS 578T breast was 1.05 µM; in the assay on OVCAR-3 ovarian, 0.0616 µM; with SK-OV-3 ovarian, 0.0589 µM. In addition, the TGI was found to be 0.66 µM in the assay with HCC-2998 colon; 8.67 µM in the assay with PC-3 prostate; 1.54 µM with SNB-75 CNS; 0.296 µM in the assay with A549 NSCLC; 1.9 µM with SK-MEL-2 melanoma; 2.3 µM in the assay on CAKI-1 renal. The TGI is 4.33 µM with HS 578T breast, 0.302 µM with OVCAR-3 ovarian and 1.62 µM in the assay with SK-OV-3 ovarian.
